Counter-ions that a name gives are not always drawn.
Test system: STAT6
Experiment: Inhibitory test on STAT6 activation: IL-4-induced alkali phosphatase STAT6 reporter in 293 cells stably expressing the STAT6 gene and STAT6 reporter gene
Assay type: cell-based
Settings: HEK293; Table 1; 1 ng/ml human recombinant IL-4, 16 hours, 293 cells with STAT6 reporter; read-out: Inhibitory activity IC50 (concentration at which the alkali phosphatase activity induced by IL-4 was inhibited by 50%)
Outline: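 HEK293 clone stably carrying STAT6 and a STAT6-element-driven alkaline phosphatase reporter, 5000 cells/well. Compound (DMSO ≤0.1%) plus 1 ng/ml human IL-4 for 16 hours. Supernatant heat-treated 65° C. 10 minutes, then alkaline phosphatase measured fluorometrically in carbonate buffer.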

Compound | IC50
Fc1ccc(-c2n[nH]cc2-c2ccc3ncc(-c4ccc(Cl)s4)n3c2)cc1 [Example 70, 3-(5-Chloro-2-thienyl)-6-[3-(4-fluorophenyl)-1H-4-pyrazolyl]imidazo[1,2-a]pyridine dihydrochloride] | 0.01 to 0.1 µM
CC(C)c1nc(-c2cnc3ccc(-c4c[nH]nc4-c4ccccc4F)cn23)no1 [Example 605, 6-[3-(2-Fluorophenyl)-1H-4-pyrazolyl]-3-(5-isopropyl-[1,2,4]oxadiazol-3-yl)-imidazo[1,2-a]pyridine trihydrochloride] | < 0.01 µM
O=C(Nc1nc(C2CC2)cs1)c1ccc(-c2cnc3ccc(-c4cn[nH]c4)cn23)cc1F [Example 652, N1-(4-Cyclopropyl-1,3-thiazol-2-yl)-2-fluoro-4-[6-(1H-4-pyrazolyl)imidazo[1,2-a]pyridin-3-yl]benzamide dihydrochloride] | < 0.01 µM
Fc1cc(OC2CCCC2)ccc1-c1n[nH]cc1-c1ccc2ncc(-c3noc(C4CC4)n3)n2c1 [Example 584, 6-[3-(4-Cyclopentyloxy-2-fluorophenyl)-1H-4-pyrazolyl]-3-(5-cyclopropyl-[1,2,4]oxadiazol-3-yl)-imidazo[1,2-a]-pyridine trihydrochloride] | < 0.01 µM
CS(=O)(=O)c1ccc(-c2n[nH]cc2-c2ccc3ncc(-c4ccc(C#N)cc4)n3c2)cc1 [Example 102, 4–6-(3-[4-(Methylsulfonyl)phenyl]-1H-4-pyrazolyl}imidazo-[1,2-a]pyridin-3-yl)benzonitrile dihydrochloride] | 0.01 to 0.1 µM
Fc1ccc(-c2n[nH]cc2-c2ccc3ncc(-c4nnc(C5CC5)s4)n3c2)c(F)c1 [Example 556, 3-(5-Cyclopropyl[1,3,4]thiadiazol-2-yl)6-[3-(2,4-difluorophenyl)-1H-pyrazol-4-yl]imidazo[1,2-a]pyridine] | < 0.01 µM
CN(C(=O)N1CCOCC1)c1ccc(-c2n[nH]cc2-c2ccc3ncc(-c4ccccn4)n3c2)cc1 [Example 534, Morpholine-4-carboxylic acid methyl(4-[4-(3-pyridin-2-ylimidazo[1,2-a]pyridin-6-yl)-1H-pyrazol-3-yl]phenyl} amide] | < 0.01 µM
CCc1ccc(C(=O)C(C)(C)NC(=O)c2ccc(-c3cnc4ccc(-c5cn[nH]c5)cn34)cc2F)cc1 [Example 676, N1-[2-(4-Ethylphenyl)-1,1-dimethyl-2-oxyethyl]-2-fluoro-4-[6-(1H-4-pyrazolyl)imidazo[1,2-a]pyridin-3-yl]benzamide hydrochloride] | 0.01 to 0.1 µM
C=Cc1ccc(NC(=O)c2ccc(-c3cnc4ccc(-c5cn[nH]c5)cn34)cc2F)nc1 [Example 689, N1-(5-Vinyl-2-pyridyl)-2-fluoro-4-[6-(1H-4-pyrazolyl)-imidazo[1,2-a]pyridin-3-yl]benzamide dihydrochloride] | < 0.01 µM
NC(=O)c1ccc(-c2cnc3ccc(-c4c[nH]nc4-c4ccc(F)cc4)cn23)cc1 [Example 78, 4-{6-[3-(4-Fluorophenyl)-1H-4-pyrazolyl]imidazo[1,2-a]-pyridin-3-yl}benzamide dihydrochloride] | < 0.01 µM
C[C@H](NC(=O)c1ccc(-c2cnc3ccc(-c4cn[nH]c4)cn23)cc1F)C(=O)c1ccc(F)cc1 [Example 672, N1-[(1S)-2-(4-Fluorophenyl)-1-methyl-2-oxoethyl]-2-fluoro-4-[6-(1H-4-pyrazolyl)imidazo[1,2-a]pyridin-3-yl]benzamide hydrochloride] | < 0.01 µM
Fc1ccc(-c2n[nH]cc2-c2ccc3ncc(-c4noc(C5CC5)n4)n3c2)c(F)c1 [Example 576, 3-(5-Cyclopropyl-[1,2,4]oxadiazol-3-yl)-6-[3-(2,4-difluorophenyl)-1H-4-pyrazolyl]-imidazo[1,2-a]pyridine trihydrochloride] | < 0.01 µM
CC(C)NC(=O)Nc1ccc(-c2cnc3ccc(-c4cn[nH]c4)cn23)cc1F [Example 699, N-12-Fluoro-4-[6-(1H-4-pyrazolyl)imidazo[1,2-a]pyridin-3-yl] phenyl}-N′-isopropylurea hydrochloride] | 0.01 to 0.1 µM

Results, then the compound that gave them:

IC50 | Compound
< 0.01 µM | O=C1CCc2cc(-c3cnc4ccc(-c5c[nH]nc5-c5ccc(F)cc5)cn34)ccc21 [Example 623, 5-{6-[3-(4-Fluorophenyl)-1H-4-pyrazolyl]imidazo[1,2-a]pyridin-3-yl}-1-indanone]
< 0.01 µM | COc1ccc(-c2n[nH]cc2-c2ccc3ncc(-c4noc(C5CC5)n4)n3c2)c(F)c1 [Example 580, 3-(5-Cyclopropyl-[1,2,4]oxadiazol-3-yl)-6-[3-(2-fluoro-4-methoxyphenyl)-1H-4-pyrazolyl]-imidazo[1,2-a]pyridine trihydrochloride]
< 0.01 µM | COC1CCN(c2ccnc3ccc(-c4c[nH]nc4C)cc23)CC1 [Example 230, 4-(4-Methoxypiperidino)-6-(3-methyl-1H-4-pyrazolyl)quinoline dihydrochloride]
< 0.01 µM | O=C(Nc1ccc(Cl)cn1)c1ccc(-c2cnc3ccc(-c4cn[nH]c4)cn23)cc1F [Example 680, N1-(5-Chloro-2-pyridyl)-2-fluoro-4-[6-(1H-4-pyrazolyl)-imidazo[1,2-a]pyridin-3-yl]benzamide dihydrochloride]
< 0.01 µM | Cc1n[nH]cc1-c1ccc2ncc(-c3ccc(CN4CCC[C@H]4C(N)=O)s3)n2c1 [Example 120, (2S)-1-({5-[6-(3-Methyl-1H-4-pyrazolyl)imidazo[1,2-a]-pyridin-3-yl]-2-thienyl}methyl)tetrahydro-1H-2-pyrrole carboxyamide trihydrochloride]
0.01 to 0.1 µM | Cc1cnc(NC(=O)c2ccc(-c3cnc4ccc(-c5cn[nH]c5)cn34)nc2)s1 [Example 655, N3-(5-Methyl-1,3-thiazol-2-yl)-6-[6-(1H-4-pyrazolyl)-imidazo[1,2-a]pyridin-3-yl]nicotinic acid amide trihydrochloride]
< 0.01 µM | Cc1n[nH]cc1-c1ccc2nccc(N3CCN(C(=O)Nc4ccccc4)CC3)c2c1 [Example 212, N-Phenyl-4-[6-(3-methyl-1H-4-pyrazolyl)-4-quinolyl]-1-piperazine carboxamide dihydrochloride]

Same assay, conditions: HEK293; Table 2; 1 ng/ml human recombinant IL-4, 16 hours, 293 cells with STAT6 reporter; read-out: Inhibitory activity IC50 (concentration at which the alkali phosphatase activity induced by IL-4 was inhibited by 50%)

Compound | IC50
Fc1ccc(-c2n[nH]cc2-c2ccc3ncnc(-c4nnc(C5CC5)s4)c3c2)c(F)c1 [Example 908, 4-(5-Cyclopropyl[1,3,4]thiadiazol-2-yl)-6-[3-(2,4-difluorophenyl)-1H-pyrazol-4-yl] quinazoline] | < 0.01 µM
c1nc(N2CCN(C3CCCCC3)CC2)c2cc(-c3cn[nH]c3)ccc2n1 [Example 957, 4-(4-Cyclohexylpiperazin-1-yl)-6-(1H-pyrazol-4-yl)quinazoline tri-trifluoroacetate] | 0.01 to 0.1 µM
CN(C)CCN(C)S(=O)(=O)c1ccc(-c2ncnc3ccc(-c4c[nH]nc4-c4ccc(F)cc4)cc23)s1 [Example 855, 5-{6-[3-(4-Fluorophenyl)-1H-pyrazol-4-yl]quinazolin-4-yl}-thiophen-2-sulfonic acid (2-dimethylaminoethyl)methylamide trihydrochloride] | < 0.01 µM
CN(CC(=O)c1ccc(F)cc1)S(=O)(=O)c1ccc(-c2ncnc3ccc(-c4c[nH]nc4-c4ccc(F)cc4)cc23)s1 [Example 866, 5-{6-[3-(4-Fluorophenyl)-1H-pyrazol-4-yl]quinazolin-4-yl}thiophen-2-sulfonic acid [2-(4-fluorophenyl) 2-oxoethyl]methylamide dihydrochloride] | 0.01 to 0.1 µM
CS(=O)(=O)c1ccc(OC2CCN(c3ccnc4ccc(-c5cn[nH]c5)cc34)CC2)c(F)c1 [Example 1032, 4-[4-(2-Fluoro-4-methylsulfonylphenoxy)-piperidin-1-yl]-6-(1H-pyrazol-4-yl)quinoline trihydrochloride] | 0.01 to 0.1 µM
CS(=O)(=O)c1ccc(-c2ncnc3ccc(-c4c[nH]nc4CN4CCOCC4)cc23)s1 [Example 904, 4-(5-Methylsulfonylthiophen-2-yl)-6-(3-morpholin-4-ylmethyl-1H-pyrazol-4-yl) quinazoline] | 0.1 to 1 µM

Next, values leading:

IC50 | Compound
0.1 to 1 µM | CS(=O)(=O)c1ccc(-c2ncnc3ccc(-c4c[nH]nc4CNc4ccc(F)cc4F)cc23)s1 [Example 906, 2,4-Difluorophenyl{4-[4-(5-methylsulfonylthiophen-2-yl)quinazolin-6-yl]-1H-pyrazol-3-ylmethyl} amine]
0.01 to 0.1 µM | O=S(=O)(CCO)c1cccc(N2CCN(c3ncnc4ccc(-c5cn[nH]c5)cc34)CC2)c1 [Example 951, 2-(3-{4-[6-(1H-Pyrazol-4-yl)quinazolin-4-yl]piperazin-1-yl}benzenesulfonyl)ethanol tri-trifluoroacetate]
< 0.01 µM | COc1ccc(-c2n[nH]cc2-c2ccc3ncnc(N4CCN(c5cccc(S(C)(=O)=O)c5)CC4)c3c2)cc1OC [Example 963, 6-[3-(3,4-Dimethoxyphenyl)-1H-pyrazol-4-yl]-4-[4-(3-methylsulfonylphenyl)piperazin-1-yl]-quinazoline tri-trifluoroacetate]
< 0.01 µM | CNc1ccc(-c2n[nH]cc2-c2ccc3ncnc(-c4ccc(S(C)(=O)=O)s4)c3c2)cc1 [Example 883, (4-{4-[4-(5-Methylsulfonylthiophen-2-yl)quinazolin-6-yl]-1H-pyrazol-3-yl}phenyl) methylamine]
0.01 to 0.1 µM | O=S(=O)(Nc1cccc(N2CCN(c3ncnc4ccc(-c5cn[nH]c5)cc34)CC2)c1)c1cccs1 [Example 993, Thiophene-2-sulfonic acid (3-{4-[6-(1H-pyrazol-4-yl)quinazolin-4-yl]piperazin-1-yl)phenyl)amide tri-trifluoroacetate]
< 0.01 µM | COC1CCN(C(=O)c2ccc(-n3cnc4ccc(-c5c[nH]nc5-c5ccc(F)cc5)cc43)nc2)C1 (centres unmarked) [Example 725, 6-{6-[3-(4-Fluorophenyl)-1H-4-pyrazolyl]-1H-benzo[d]imidazol-1-yl}-pyridin-3-yl)-(3-methoxypyrrolidin-1-yl)methanone dihydrochloride]

Source: patent publication US7074801B1, “Nitrogen-containing condensed cyclic compound having a pyrazolyl group as a substituent group and pharmaceutical composition thereof” (Eisai Co., Ltd., priority 2001, dated 2006)
